From ChEMBL document CHEMBL1128118, “Synthesis of biologically active 2-benzoyl paclitaxel analogues” (1995)

Tests used:
B16 = assay: Ratio of ED50 of compound for B16 melanoma cytotoxicity to that of ED50 of paclitaxel; Relative paclitaxel ED50 = 1.0; assay type: functional, Mus musculus
Tubulin (Bos taurus) = Tubulin (Bos taurus) (UniProt Q6B856+Q862L2+Q862F3); assay: Ratio of ED50 for microtubule polymerization to ED50 for paclitaxel; Relative paclitaxel ED50 = 1.0; assay type: functional
P388 = assay: Compound was tested for in vitro cytotoxicity against P388 cells; assay type: functional, Mus musculus

SMILES	Ratio (B16)	Ratio (Tubulin (Bos taurus))	Activity (P388)
CC(=O)O[C@H]1C(=O)[C@]2(C)[C@@H](O)CC3OC[C@@]3(OC(C)=O)[C@H]2[C@H](OC(=O)c2cccc([N+](=O)[O-])c2)[C@]2(O)C[C@H](OC(=O)[C@H](O)[C@@H](NC(=O)c3ccccc3)c3ccccc3)C(C)=C1C2(C)C (some centres not stated)	0.73	1.3	–
CC(=O)O[C@H]1C(=O)[C@]2(C)[C@@H](O)CC3OC[C@@]3(OC(C)=O)[C@H]2[C@H](OC(=O)c2cccc(C(F)(F)F)c2)[C@]2(O)C[C@H](OC(=O)[C@H](O)[C@@H](NC(=O)c3ccccc3)c3ccccc3)C(C)=C1C2(C)C (some centres not stated)	2.7	0.64	–
CC(=O)O[C@H]1C(=O)[C@]2(C)[C@@H](O)CC3OC[C@@]3(OC(C)=O)[C@H]2[C@H](OC(=O)c2cc(Cl)cc(Cl)c2)[C@]2(O)C[C@H](OC(=O)[C@H](O)[C@@H](NC(=O)c3ccccc3)c3ccccc3)C(C)=C1C2(C)C (some centres not stated)	1.8	0.98	–
CC(=O)O[C@H]1C(=O)[C@]2(C)[C@@H](O)CC3OC[C@@]3(OC(C)=O)[C@H]2[C@H](OC(=O)c2ccccc2C)[C@]2(O)C[C@H](OC(=O)[C@H](O)[C@@H](NC(=O)c3ccccc3)c3ccccc3)C(C)=C1C2(C)C (some centres not stated)	0.84	1.1	–
CC(=O)O[C@H]1C(=O)[C@]2(C)[C@@H](O)CC3OC[C@@]3(OC(C)=O)[C@H]2[C@H](OC(=O)c2ccc([N+](=O)[O-])cc2)[C@]2(O)C[C@H](OC(=O)[C@H](O)[C@@H](NC(=O)c3ccccc3)c3ccccc3)C(C)=C1C2(C)C (some centres not stated)	–	> 8.8	–
CC(=O)O[C@H]1C(=O)[C@]2(C)[C@@H](O)CC3OC[C@@]3(OC(C)=O)[C@H]2[C@H](OC(=O)c2ccc(Cl)c(Cl)c2)[C@]2(O)C[C@H](OC(=O)[C@H](O)[C@@H](NC(=O)c3ccccc3)c3ccccc3)C(C)=C1C2(C)C (some centres not stated)	2.7	0.45	–
COc1ccc(C(=O)O[C@H]2[C@H]3[C@](C)(C(=O)[C@H](OC(C)=O)C4=C(C)[C@@H](OC(=O)[C@H](O)[C@@H](NC(=O)c5ccccc5)c5ccccc5)C[C@]2(O)C4(C)C)[C@@H](O)CC2OC[C@]23OC(C)=O)cc1 (some centres not stated)	22	6	–
CC(=O)O[C@H]1C(=O)[C@]2(C)[C@@H](O)CC3OC[C@@]3(OC(C)=O)[C@H]2[C@H](OC(=O)c2ccc(Cl)cc2)[C@]2(O)C[C@H](OC(=O)[C@H](O)[C@@H](NC(=O)c3ccccc3)c3ccccc3)C(C)=C1C2(C)C (some centres not stated)	3.1	0.79	–
CC(=O)O[C@H]1C(=O)[C@]2(C)[C@@H](O)CC3OC[C@@]3(OC(C)=O)[C@H]2[C@H](OC(=O)c2cccc(Cl)c2)[C@]2(O)C[C@H](OC(=O)[C@H](O)[C@@H](NC(=O)c3ccccc3)c3ccccc3)C(C)=C1C2(C)C (some centres not stated)	0.57	1.1	0.81
CC(=O)O[C@H]1C(=O)[C@@]2(C)[C@H]([C@H](OC(=O)c3ccccc3)[C@]3(O)C[C@H](OC(=O)[C@H](O)[C@@H](NC(=O)c4ccccc4)c4ccccc4)C(C)=C1C3(C)C)[C@]1(OC(C)=O)CO[C@@H]1C[C@@H]2O [PACLITAXEL]	1	1	1
CC(=O)O[C@H]1C(=O)[C@]2(C)[C@@H](O)CC3OC[C@@]3(OC(C)=O)[C@H]2[C@H](OC(=O)c2ccc(C)cc2)[C@]2(O)C[C@H](OC(=O)[C@H](O)[C@@H](NC(=O)c3ccccc3)c3ccccc3)C(C)=C1C2(C)C (some centres not stated)	5.1	1.6	–
CC(=O)O[C@H]1C(=O)[C@]2(C)[C@@H](O)CC3OC[C@@]3(OC(C)=O)[C@H]2[C@H](OC(=O)c2cccc(C)c2)[C@]2(O)C[C@H](OC(=O)[C@H](O)[C@@H](NC(=O)c3ccccc3)c3ccccc3)C(C)=C1C2(C)C (some centres not stated)	1.6	1.7	–
CC(=O)O[C@H]1C(=O)[C@]2(C)[C@@H](O)CC3OC[C@@]3(OC(C)=O)[C@H]2[C@H](OC(=O)c2ccc(F)cc2)[C@]2(O)C[C@H](OC(=O)[C@H](O)[C@@H](NC(=O)c3ccccc3)c3ccccc3)C(C)=C1C2(C)C (some centres not stated)	>36	3.2	–
